Data from PubChem BioAssay (NCI).
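Step 1: Grow cells in 96-well plates. Step 2: Expose to compound for 48 hours at 5 concentrations. Step 3: Interpolate endpoints linearly; if unreached, use highest concentration. Here, GI50 denotes the concentration required for 50% inhibition of growth. The concentration for full growth arrest is given as TGI.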

Columns and labels:
Assay in all cases: growth of human tumour cells (NCI), 48 h
CCRF-CEM leukemia = tested on: CCRF-CEM leukemia
CAKI-1 renal = tested on: CAKI-1 renal
DU-145 prostate = tested on: DU-145 prostate
SK-MEL-2 melanoma = tested on: SK-MEL-2 melanoma
SK-OV-3 ovarian = tested on: SK-OV-3 ovarian
SR leukemia = tested on: SR leukemia
RPMI-8226 leukemia = tested on: RPMI-8226 leukemia
MOLT-4 leukemia = tested on: MOLT-4 leukemia
NCI-H23 lung = tested on: NCI-H23 lung
K-562 leukemia = tested on: K-562 leukemia
RXF 393 renal = tested on: RXF 393 renal
HT29 colon = tested on: HT29 colon
ACHN renal = tested on: ACHN renal
HL-60(TB) leukemia = tested on: HL-60(TB) leukemia
UACC-257 melanoma = tested on: UACC-257 melanoma
BT-549 breast = tested on: BT-549 breast
NCI-H226 lung = tested on: NCI-H226 lung
MCF7 breast = tested on: MCF7 breast
HCT-15 colon = tested on: HCT-15 colon
SK-MEL-5 melanoma = tested on: SK-MEL-5 melanoma
HCT-116 colon = tested on: HCT-116 colon
A498 renal = tested on: A498 renal
SNB-75 CNS = tested on: SNB-75 CNS
MDA-MB-231 breast = tested on: MDA-MB-231 breast
PC-3 prostate = tested on: PC-3 prostate
M14 melanoma = tested on: M14 melanoma
HOP-62 NSCLC = tested on: HOP-62 NSCLC
IGROV1 ovarian = tested on: IGROV1 ovarian
TK-10 renal = tested on: TK-10 renal
MDA-MB-435 = tested on: MDA-MB-435
SF-539 CNS = tested on: SF-539 CNS
KM12 colon = tested on: KM12 colon
OVCAR-8 ovarian = tested on: OVCAR-8 ovarian
HS 578T breast = tested on: HS 578T breast
LOX IMVI melanoma = tested on: LOX IMVI melanoma
NCI/ADR-RES ovarian = tested on: NCI/ADR-RES ovarian
OVCAR-4 ovarian = tested on: OVCAR-4 ovarian
SF-295 CNS = tested on: SF-295 CNS
OVCAR-3 ovarian = tested on: OVCAR-3 ovarian
SK-MEL-28 melanoma = tested on: SK-MEL-28 melanoma
HCC-2998 colon = tested on: HCC-2998 colon
MALME-3M melanoma = tested on: MALME-3M melanoma
NCI-H460 lung = tested on: NCI-H460 lung
786-0 renal = tested on: 786-0 renal
U251 CNS = tested on: U251 CNS
A549 NSCLC = tested on: A549 NSCLC
SW-620 colon = tested on: SW-620 colon
UO-31 renal = tested on: UO-31 renal
UACC-62 melanoma = tested on: UACC-62 melanoma
HOP-92 NSCLC = tested on: HOP-92 NSCLC
SN12C renal = tested on: SN12C renal

`N=C(N)c1ccc(-c2ccc(-c3ccc(Cl)cc3Cl)s2)cc1F` gave a GI50 (CCRF-CEM leukemia) of 1.8 µM, a TGI (CCRF-CEM leukemia) of 4.67 µM and a GI50 (CAKI-1 renal) of 1.63 µM. The TGI (CAKI-1 renal) was 2.99 µM, the GI50 (DU-145 prostate) was 1.78 µM and the TGI (DU-145 prostate) was 3.16 µM. It also gave a GI50 (SK-MEL-2 melanoma) of 2.21 µM, a TGI (SK-MEL-2 melanoma) of 5.2 µM and a GI50 (SK-OV-3 ovarian) of 3.05 µM. For the same molecule, the TGI (SK-OV-3 ovarian) was 17.5 µM, the GI50 (SR leukemia) was 1.42 µM and the TGI (SR leukemia) was > 100 µM. For the same molecule, the GI50 (RPMI-8226 leukemia) was 2.07 µM and the TGI (RPMI-8226 leukemia) was 4.57 µM.

Work on `C(=C\c1n(Cc2ccc3ccccc3c2)c(-c2ccccc2)c(-c2ccccc2)[n+]1Cc1ccc2ccccc2c1)/c1ccccc1` yielded a GI50 (CCRF-CEM leukemia) of 0.406 µM, a TGI (CCRF-CEM leukemia) of 2.09 µM and a GI50 (MOLT-4 leukemia) of 0.292 µM. For the same molecule, the TGI (MOLT-4 leukemia) was 1.26 µM, the GI50 (NCI-H23 lung) was 0.257 µM and the TGI (NCI-H23 lung) was 0.919 µM. The GI50 (K-562 leukemia) was 0.222 µM, the TGI (K-562 leukemia) was 5 µM and the GI50 (RXF 393 renal) was 0.26 µM. For the same molecule, the TGI (RXF 393 renal) was 1.14 µM, the GI50 (SR leukemia) was 0.313 µM and the TGI (SR leukemia) was > 100 µM. For the same molecule, the GI50 (HT29 colon) was 0.142 µM, the TGI (HT29 colon) was 1.09 µM and the GI50 (RPMI-8226 leukemia) was 0.0758 µM. It also gave a TGI (RPMI-8226 leukemia) of 0.621 µM, a GI50 (ACHN renal) of 0.239 µM and a TGI (ACHN renal) of 0.591 µM. The GI50 (HL-60(TB) leukemia) was 0.2 µM and the TGI (HL-60(TB) leukemia) was 0.635 µM.

`C/C=C1\NC(=O)[C@H](Cc2ccccc2)NC(=O)[C@@H](C(C)C)NC(=O)[C@@H]([C@@H](C)CC)NC(=O)[C@H](NC(=O)[C@H](NC(=O)[C@H](CCCN)NC(=O)[C@H]2CCCN2C(=O)[C@H](NC(=O)[C@@H](NC(=O)[C@@H](NC(=O)[C@H](NC(=O)CCCC(C)C)C(C)C)[C@@H](C)O)C(C)C)C(C)C)[C@@H](C)CC)[C@@H](C)OC(=O)[C@H](C(C)C)NC1=O` showed a GI50 (UACC-257 melanoma) of 1.02 µM, a TGI (UACC-257 melanoma) of 2.84 µM and a TGI (NCI-H23 lung) of 15.2 µM. For the same molecule, the TGI (BT-549 breast) was 12 µM and the TGI (NCI-H226 lung) was 4.24 µM.

In the case of `COc1cc(C(=O)/C=C/c2cc(C(=O)c3cc(OC)c(OC)c(OC)c3)ccc2OC)ccc1N`, the GI50 (MCF7 breast) is reported as 0.322 µM, the TGI (MCF7 breast) is reported as 2.28 µM and the GI50 (HCT-15 colon) is reported as 0.37 µM. The TGI (HCT-15 colon) was 2.12 µM, the GI50 (CCRF-CEM leukemia) was 0.35 µM and the TGI (CCRF-CEM leukemia) was > 100 µM. The GI50 (SK-MEL-5 melanoma) was 1.02 µM, the TGI (SK-MEL-5 melanoma) was 2.18 µM and the GI50 (HCT-116 colon) was 0.661 µM. The TGI (HCT-116 colon) was 2.03 µM, the GI50 (UACC-257 melanoma) was 1.32 µM and the TGI (UACC-257 melanoma) was 3.14 µM. The GI50 (CAKI-1 renal) was 0.669 µM, the TGI (CAKI-1 renal) was 19.4 µM and the GI50 (A498 renal) was 2.14 µM. It also gave a TGI (A498 renal) of 5.92 µM, a GI50 (DU-145 prostate) of 1.03 µM and a TGI (DU-145 prostate) of 4.59 µM. The GI50 (SNB-75 CNS) was 1.16 µM, the TGI (SNB-75 CNS) was 4.35 µM and the GI50 (MDA-MB-231 breast) was 0.713 µM. The TGI (MDA-MB-231 breast) was > 100 µM, the GI50 (MOLT-4 leukemia) was 0.616 µM and the TGI (MOLT-4 leukemia) was > 100 µM. The GI50 (PC-3 prostate) was 1.8 µM, the TGI (PC-3 prostate) was 7.4 µM and the GI50 (SK-MEL-2 melanoma) was 1.63 µM. The TGI (SK-MEL-2 melanoma) was 3.72 µM, the GI50 (NCI-H23 lung) was 1.42 µM and the TGI (NCI-H23 lung) was 4.1 µM. The GI50 (M14 melanoma) was 0.752 µM, the TGI (M14 melanoma) was 3.06 µM and the GI50 (K-562 leukemia) was 0.386 µM. The TGI (K-562 leukemia) was > 100 µM, the GI50 (HOP-62 NSCLC) was 2.03 µM and the TGI (HOP-62 NSCLC) was 8.31 µM. For the same molecule, the GI50 (IGROV1 ovarian) was 2.07 µM, the TGI (IGROV1 ovarian) was 8.62 µM and the GI50 (TK-10 renal) was 3.61 µM. For the same molecule, the TGI (TK-10 renal) was 18 µM, the GI50 (MDA-MB-435) was 1.19 µM and the TGI (MDA-MB-435) was > 100 µM. For the same molecule, the GI50 (SF-539 CNS) was 1.53 µM, the TGI (SF-539 CNS) was 3.98 µM and the GI50 (KM12 colon) was 0.552 µM. It also gave a TGI (KM12 colon) of 5.37 µM, a GI50 (OVCAR-8 ovarian) of 0.846 µM and a TGI (OVCAR-8 ovarian) of 6.12 µM. For the same molecule, the GI50 (HS 578T breast) was 1.39 µM, the TGI (HS 578T breast) was > 100 µM and the GI50 (LOX IMVI melanoma) was 0.74 µM. It also gave a TGI (LOX IMVI melanoma) of 2.03 µM, a GI50 (NCI/ADR-RES ovarian) of 0.388 µM and a TGI (NCI/ADR-RES ovarian) of 2.51 µM. For the same molecule, the GI50 (OVCAR-4 ovarian) was 0.982 µM, the TGI (OVCAR-4 ovarian) was > 100 µM and the GI50 (SF-295 CNS) was 2.3 µM. For the same molecule, the TGI (SF-295 CNS) was 17.4 µM, the GI50 (OVCAR-3 ovarian) was 0.448 µM and the TGI (OVCAR-3 ovarian) was 4.17 µM. For the same molecule, the GI50 (NCI-H226 lung) was 2.14 µM, the TGI (NCI-H226 lung) was 7.39 µM and the GI50 (SK-MEL-28 melanoma) was 1.36 µM. For the same molecule, the TGI (SK-MEL-28 melanoma) was 3.75 µM, the GI50 (HCC-2998 colon) was 1.27 µM and the TGI (HCC-2998 colon) was 2.64 µM. For the same molecule, the GI50 (SK-OV-3 ovarian) was 3.16 µM, the TGI (SK-OV-3 ovarian) was 16.1 µM and the GI50 (MALME-3M melanoma) was 1.47 µM. It also gave a TGI (MALME-3M melanoma) of 4.16 µM, a GI50 (NCI-H460 lung) of 2.13 µM and a TGI (NCI-H460 lung) of 7.61 µM. The GI50 (786-0 renal) was 1.54 µM, the TGI (786-0 renal) was 4.08 µM and the GI50 (HT29 colon) was 0.422 µM. For the same molecule, the TGI (HT29 colon) was 1.56 µM, the GI50 (U251 CNS) was 1.02 µM and the TGI (U251 CNS) was 2.22 µM. For the same molecule, the GI50 (A549 NSCLC) was 3.2 µM, the TGI (A549 NSCLC) was 29 µM and the GI50 (RPMI-8226 leukemia) was 0.419 µM. It also gave a TGI (RPMI-8226 leukemia) of 14.1 µM, a GI50 (ACHN renal) of 1.08 µM and a TGI (ACHN renal) of 4.49 µM. It also gave a GI50 (HL-60(TB) leukemia) of 1.48 µM, a TGI (HL-60(TB) leukemia) of 6.82 µM and a GI50 (SW-620 colon) of 0.374 µM. For the same molecule, the TGI (SW-620 colon) was > 100 µM, the GI50 (UO-31 renal) was 0.762 µM and the TGI (UO-31 renal) was 2.12 µM. The GI50 (UACC-62 melanoma) was 1.17 µM, the TGI (UACC-62 melanoma) was 2.66 µM and the GI50 (HOP-92 NSCLC) was 2.94 µM. For the same molecule, the TGI (HOP-92 NSCLC) was > 100 µM, the GI50 (SN12C renal) was 1.62 µM and the TGI (SN12C renal) was 4.92 µM.
